Source: patent US12115213B2, “Methods of treating fungal infections” (priority 2016, dated 2024)
Peptide text beside a SMILES is read from it. * marks the point of attachment. Cbz = O=C(OCc1ccccc1)*

System: wild-type H99 strain
Assay: Proteasome inhibitor / SDS sensitivity growth assay
Format: cell-based, Cryptococcus neoformans
Conditions: for growth of wild type and complemented strain with SDS and proteasome inhibitor: YPD with 0.025% SDS plus inhibitor
Method: For SDS sensitivity testing, SDS was added to YPD to a final concentration of 0.2% (wt/vol), and 2× serial dilutions were prepared in 96-well plates. Cells of H99, the fbp1Δ mutant, and its complemented strain were added to the wells to a final optical density at 600 nm (OD600) of 0.01. The plates were kept at 30° C., and the OD600 was measured every 24 h. […] Twofold serial dilutions were prepared in 96-well plates. The wild-type H99 strain was added to the well containing proteasome inhibitors (MG132 or […]) and SDS to a final OD600 of 0.01. The fbp1Δ mutant was added to YPD with 0.025% SDS only to a final OD600 of 0.01. The growth of cultures was determined by measuring the OD600 every 24 h.
To test whether SDS sensitivity is regulated by the SCF(Fbp1) E3 ligase function, the effects of proteasome inhibitors on Cryptococcus SDS sensitivity was investigated. Fungal growth rates of the wild-type H99 strain, the fp1Δ mutant, and its complemented strain on YPD medium containing 0.025% SDS were determined in the absence or presence of the proteasome inhibitor MG132 or PS-341. MG132 is a cell-permeative proteasome inhibitor which can reduce the degradation of ubiquitin-conjugated proteins by the 26S complex without affecting its ATPase or isopeptidase activity. PS-341 is a potent and reversible proteasome inhibitor that functions to […]. […] Therefore, without wishing to be bound by theory, certain substrates of Fbp1 may also participate in regulation of cell membrane integrity.

SMILES	effect on growth of the wild-type strain or the mutant, inhibitor alone (25 μM MG132, YPD without SDS)	growth of wild type and complemented strain with SDS and proteasome inhibitor	effect on growth of the wild-type strain or the mutant, inhibitor alone (100 μM PS-341, YPD without SDS)
CC(C)C[C@@H](C=O)NC(=O)[C@H](CC(C)C)NC(=O)[C@H](CC(C)C)NC(=O)OCc1ccccc1 [MG132] (Cbz-Leu-Leu-Leu-aldehyde)	Neither 25 μM MG132 nor 100 μM PS-341 alone affected the growth	significant growth defect	
CC(C)C[C@H](NC(=O)[C@H](Cc1ccccc1)NC(=O)c1cnccn1)B(O)O [PS-341]		significant growth defect	Neither 25 μM MG132 nor 100 μM PS-341 alone affected the growth
